Laboratory results published in patent EP0466251A1, “Elfamycin-resistant mutants” (priority 1990, dated 1992).

Tests used:
[1] = target: T1, major EF-Tu species of S. ramocissimus strain R1V (Streptomyces ramocissimus, UniProt P29542, A379V); assay: direct elfamycin binding assay on S-100 extract; details: S-100 extract of strain R1V; 25 µM Aurodox
T1 construct: an S-100 extract was prepared from a culture of S. ramocissimus strain R1V; endogenous in cells; host or cells: S. ramocissimus strain R1V (chromosomal tuf1 replaced by the A378V allele)
Method: (§1) For direct visualization of the elfamycin binding capacity, the mutant proteins were expressed in E. coli JM101 essentially as described in Example 3. Subsequently, a GDP stabilized S-30, S-100, or purified SrEF-Tu sample was prepared, and incubated with 25 µM aurodox for 15 minutes at 37°C. These samples, and control samples without aurodox were then subjected to non-denaturing 10% polyacrylamide gels and electrophoresed. Detection of the SrEF-Tu species was performed by the Western blotting technique using SrEF-Tu antibodies (Example 1). […] This experiment thus established that elfamycin resistance is most likely the effect of a reduced binding of the elfamycin to the mutant SrEF-Tu proteins.
To establish that S. ramocissimus strain R1V actually expresses the mutated Srtuf1 gene as the main EF-Tu species, an S-100 extract was prepared from a culture of S. ramocissimus strain R1V essentially as described in Example 1. Subsequently this extract was subjected to the direct elfamycin binding assay outlined in Example 6.

[2] = target: T2, wild-type S. ramocissimus EF-Tu (Streptomyces ramocissimus, UniProt P29542); assay: elfamycin binding visualized by non-denaturing PAGE; details: 25 µM aurodox, 15 minutes at 37°C; Western blotting detection
T2 construct: made in house; host or cells: E. coli JM101 (pUSrT1-1)
Method: (§2) Susceptibility of the isolated EF-Tu to elfamycin is tested in elfamycin binding studies (G. Chinali et al., Eur. J. Biochem. 75 (1977) 55-65,) and in studies on the inhibition of EF-Tu dependent peptide synthesis (C. Glöckner and H. Wolf, cited above). Still another direct elfamycin binding assay has been developed in which the capacity of the EF-Tu protein to bind elfamycins can be visualized by a change in EF-Tu protein migration in the presence of the elfamycin by non-denaturing PAGE (polyacrylamide gel electrophoresis). Upon elfamycin binding to EF-Tu.GDP, a ternary complex is formed which is more negatively charged than the binary EF-Tu.GDP complex (B. Kraal et al, 1989, in The Guanine-Nucleotide Binding Proteins, pp 121-129, Plenum Press, New York). Consequently elfamycin binding, using e.g. aurodox, to Escherichia coli wild-type EF-Tu increases the migration distance into a non-denaturing polyacrylamide gel. Both the methods of peptide synthesis inhibition and visualization of elfamycin binding are the preferred techniques to determine the effect of elfamycin binding on EF-Tu functioning. These susceptibility assays are important if increased elfamycin resistance of EF-Tu has to be established.
For direct visualization of the elfamycin binding capacity, the mutant proteins were expressed in E. coli JM101 essentially as described in Example 3. […]

SrEF-Tu A378F = target: T3, SrEF-Tu A378F (Streptomyces ramocissimus, UniProt P29542, A379F); assay: as above; set-up: species or system S. ramocissimus; details: 25 µM aurodox, 15 minutes at 37°C; Western blotting detection
T3 construct: made in house; host or cells: E. coli JM101
Method: as §2, §1

SrEF-Tu A378T = target: T4, SrEF-Tu A378T (Streptomyces ramocissimus, UniProt P29542, A379T); assay: as above; set-up: species or system S. ramocissimus; details: 25 µM aurodox, 15 minutes at 37°C; Western blotting detection
T4 construct: made in house; host or cells: E. coli JM101
Method: as §2, §1

SrEF-Tu A378P = target: T5, SrEF-Tu A378P (Streptomyces ramocissimus, UniProt P29542, A379P); assay: as above; set-up: species or system S. ramocissimus; details: 25 µM aurodox, 15 minutes at 37°C; Western blotting detection
T5 construct: made in house; host or cells: E. coli JM101
Method: as §2, §1

SrEF-Tu A378V = target: T6, SrEF-Tu A378V (Streptomyces ramocissimus, UniProt P29542, A379V); assay: as above; set-up: species or system S. ramocissimus; details: 25 µM aurodox, 15 minutes at 37°C; Western blotting detection
T6 construct: made in house; host or cells: E. coli JM101
Method: as §2, §1

T4 sequence (P29542 whole entry A379T): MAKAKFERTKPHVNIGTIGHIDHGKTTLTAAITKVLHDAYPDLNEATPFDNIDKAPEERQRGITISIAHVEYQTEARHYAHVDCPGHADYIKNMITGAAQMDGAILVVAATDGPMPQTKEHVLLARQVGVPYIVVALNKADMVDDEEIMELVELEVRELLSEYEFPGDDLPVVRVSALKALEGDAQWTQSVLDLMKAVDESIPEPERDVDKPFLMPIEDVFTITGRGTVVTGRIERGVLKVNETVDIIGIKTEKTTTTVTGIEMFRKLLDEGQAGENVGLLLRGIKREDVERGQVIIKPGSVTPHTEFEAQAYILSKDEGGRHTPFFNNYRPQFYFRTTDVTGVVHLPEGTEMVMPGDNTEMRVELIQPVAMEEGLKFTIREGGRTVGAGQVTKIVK
T5 sequence (P29542 whole entry A379P): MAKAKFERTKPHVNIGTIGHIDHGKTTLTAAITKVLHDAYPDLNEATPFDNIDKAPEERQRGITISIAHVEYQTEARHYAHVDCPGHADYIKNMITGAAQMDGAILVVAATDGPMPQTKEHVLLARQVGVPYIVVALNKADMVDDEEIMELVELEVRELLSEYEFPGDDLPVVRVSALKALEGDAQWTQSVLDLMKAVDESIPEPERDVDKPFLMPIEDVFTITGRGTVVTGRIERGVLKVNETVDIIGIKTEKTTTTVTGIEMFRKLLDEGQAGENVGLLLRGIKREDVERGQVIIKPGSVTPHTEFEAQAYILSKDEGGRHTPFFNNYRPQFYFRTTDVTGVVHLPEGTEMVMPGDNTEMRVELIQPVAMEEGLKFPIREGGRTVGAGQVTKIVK
T1 sequence (P29542 whole entry A379V): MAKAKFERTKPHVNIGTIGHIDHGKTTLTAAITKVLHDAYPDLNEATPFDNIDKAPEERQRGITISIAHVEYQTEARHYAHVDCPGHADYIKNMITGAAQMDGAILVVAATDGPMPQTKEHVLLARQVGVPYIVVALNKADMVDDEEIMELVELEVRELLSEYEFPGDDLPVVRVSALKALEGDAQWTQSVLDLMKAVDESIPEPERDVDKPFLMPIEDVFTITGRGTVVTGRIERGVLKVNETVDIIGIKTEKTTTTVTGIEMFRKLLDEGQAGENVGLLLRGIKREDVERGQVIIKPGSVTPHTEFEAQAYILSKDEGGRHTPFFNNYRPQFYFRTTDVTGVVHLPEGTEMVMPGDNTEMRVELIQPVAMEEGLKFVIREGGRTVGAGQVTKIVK
T6 sequence (P29542 whole entry A379V): as above
T2 sequence (P29542 whole entry): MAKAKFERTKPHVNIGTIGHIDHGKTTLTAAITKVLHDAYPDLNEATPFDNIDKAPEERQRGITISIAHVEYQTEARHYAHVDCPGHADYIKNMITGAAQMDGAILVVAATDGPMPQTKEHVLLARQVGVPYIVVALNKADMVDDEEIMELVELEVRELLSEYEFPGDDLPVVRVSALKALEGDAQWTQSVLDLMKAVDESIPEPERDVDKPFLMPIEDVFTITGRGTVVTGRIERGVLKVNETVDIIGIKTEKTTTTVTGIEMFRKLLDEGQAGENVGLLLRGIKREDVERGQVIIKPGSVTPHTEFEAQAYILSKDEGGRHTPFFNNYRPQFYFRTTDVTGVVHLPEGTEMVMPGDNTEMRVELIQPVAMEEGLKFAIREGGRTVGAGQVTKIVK
T3 sequence (P29542 whole entry A379F): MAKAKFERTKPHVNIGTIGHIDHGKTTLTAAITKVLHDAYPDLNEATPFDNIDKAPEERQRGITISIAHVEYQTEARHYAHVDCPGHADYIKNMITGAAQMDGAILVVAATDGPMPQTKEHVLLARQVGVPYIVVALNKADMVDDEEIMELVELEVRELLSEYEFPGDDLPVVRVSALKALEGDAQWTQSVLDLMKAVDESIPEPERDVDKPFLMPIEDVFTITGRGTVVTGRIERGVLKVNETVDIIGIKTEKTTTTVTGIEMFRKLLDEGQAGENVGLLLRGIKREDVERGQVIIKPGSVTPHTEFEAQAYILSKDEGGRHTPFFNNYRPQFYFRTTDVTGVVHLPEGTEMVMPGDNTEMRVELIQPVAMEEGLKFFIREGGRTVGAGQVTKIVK

C/C=C\C=C\[C@@H]1O[C@](O)([C@H](CC)C(=O)NC/C=C/C=C(\C)[C@@H](OC)[C@@H](C)[C@@H]2O[C@H](/C=C/C=C/C=C(\C)C(=O)c3c(O)ccn(C)c3=O)[C@H](O)[C@@H]2O)[C@H](O)[C@H](O)C1(C)C [aurodox, N-Methylmocimycin]
elfamycin binding (migration in non-denaturing PAGE) [1]: unable to bind | elfamycin binding (migration in non-denaturing PAGE) [2]: appears to bind | elfamycin binding (migration in non-denaturing PAGE) (SrEF-Tu A378F): unaffected | elfamycin binding (migration in non-denaturing PAGE) (SrEF-Tu A378T): unaffected | elfamycin binding (migration in non-denaturing PAGE) (SrEF-Tu A378P): unaffected | elfamycin binding (migration in non-denaturing PAGE) (SrEF-Tu A378V): unaffected
